Broadly, the EC50 is the concentration at which the effect is half-maximal. The low end stands for higher potency in that assay, the high end for lower potency in that assay.

In one experiment the target is T1, IDO1 (Homo sapiens, UniProt P14902).
T1 construct: HeLa cells were treated with a test compound in the presence of IFNγ, which induces IDO1 expression; host or cells: H1-HeLa cells, IDO1 induced with IFNγ
T1 sequence (P14902 whole entry): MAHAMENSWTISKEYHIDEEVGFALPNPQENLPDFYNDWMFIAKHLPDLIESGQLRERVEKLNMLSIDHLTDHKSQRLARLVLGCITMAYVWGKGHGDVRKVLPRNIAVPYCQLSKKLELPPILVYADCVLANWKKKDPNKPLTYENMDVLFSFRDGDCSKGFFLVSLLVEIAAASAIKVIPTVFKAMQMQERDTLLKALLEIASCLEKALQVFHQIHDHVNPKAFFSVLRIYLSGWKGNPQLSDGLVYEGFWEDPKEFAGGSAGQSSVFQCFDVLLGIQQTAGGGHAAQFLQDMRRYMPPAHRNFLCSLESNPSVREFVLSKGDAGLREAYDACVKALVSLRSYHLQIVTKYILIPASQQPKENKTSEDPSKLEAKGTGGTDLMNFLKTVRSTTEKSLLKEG
The experiment is described as follows: Cell-based (HeLa) assay for measurement of IDO1 inhibition (kynurenine levels in supernatant after IFNγ induction). The following applies: HeLa cells, IFNγ-induced IDO1, kynurenine in supernatant after 48 hour incubation; geometric mean of a minimum of four determinations. The protocol:
Example 509. Cell-Based (HeLa) Assay for Measurement of IDOL Inhibition
To measure IDO1 inhibition in tissue culture, HeLa cells were treated with a test compound in the presence of IFNγ, which induces IDO1 expression. Following incubation, cell supernatants were assayed for kynurenine levels, an indicator of IDO1 activity.
H1-HeLa cells (ATCC #CRL-1958) were seeded in 384-well plates (Greiner #82051-282) at a volume of 50 μL/well in DMEM (Corning #15-018-CM) supplemented with 10% FBS (Corning #35-011-CV) and 1% P/S/G (Corning #30-009-CL) at a density of 1,250 cells/well and incubated overnight at 37° C., 5% CO2/100% humidity. The following day, the test compounds were added in DMSO (0.5% final) at various concentrations, and IDO1 was inducibly expressed by the addition of 50 uL/well of […] of INFγ (Peprotech #300-02) in cell plating media. As a […] control, 50 uL of the cell plating media without IFNγ was added to several wells. Following a 48 hour incubation, the plates were spun down at 1,200 RPM for 5 min at 10° C. 65 μL/well of the supernatant was then transferred to new 384-well plates (Thermo #262160) that contained 10 uL/well of 30% TCA (Sigma #TO699), and the plates were sealed and incubated at 60° C. for 30 min. The plates were then centrifuged for 15 min at 2,000 RPM at 10° C. 40 μL/well of the supernatant was transferred to new 384-well plates (Thermo #262160) and was reacted with 40 μL/well of 2% (w/v) p-dimethlyaminobenzaldehyde (Sigma #156417) in glacial acetic acid (Sigma #A6283). The reaction was incubated at room temperature for 10 min and absorbance at 480 nm was read using a PerkinElmer Envision plate reader.
Data in Table 1 were normalized based on positive (−IFNγ) and negative (+IFNγ) controls and EC50 values were calculated from the fit of the dose response curves to a four-parameter equation. All EC50 values represent geometric mean values of a minimum of four determinations. These assays generally produced results within 2-fold of the reported mean.
In turn, `Cn1nccc1CNc1nc2c(F)c(F)cc(/C(=N/O)Nc3ccc(F)c(Cl)c3)c2[nH]1` [Example 299, N-(3-chloro-4-fluorophenyl)-4,5-difluoro-N′-hydroxy-2-(((1-methyl-1H-pyrazol-5-yl)methyl)amino)-1H-benzo[d]imidazole-7-carboximidamide] registered a concentration for a half-maximal effect (EC50) of 3440 nM. Take `CC(C)(O)c1nc2nccc(/C(=N/O)Nc3ccc(F)c(Cl)c3)c2[nH]1` [Example 175, N-(3-Chloro-4-fluorophenyl)-N′-hydroxy-2-(2-hydroxypropan-2-yl)-1H-imidazo[4,5-b]pyridine-7-carboximidamide]: the midpoint of the response, the EC50, lay at 6420 nM.

In the case of `COCCN(C)CCNc1nc2nccc(/C(=N/O)Nc3ccc(F)c(Cl)c3)c2[nH]1` [Example 219, N-(3-chloro-4-fluorophenyl)-N′-hydroxy-2-((2-((2-methoxyethyl)(methyl)amino)ethyl)amino)-1H-imidazo[4,5-b]pyridine-7-carboximidamide], the response was half-maximal at 3830 nM (EC50). In turn, `O/N=C(\Nc1ccc(F)c(Cl)c1)c1ccnc2nc(CCN3CC4CCC(C4)C3)[nH]c12` [Example 277, 2-(2-(3-azabicyclo[3.2.1]octan-3-yl)ethyl)-N-(3-chloro-4-fluorophenyl)-N′-hydroxy-1H-imidazo[4,5-b]pyridine-7-carboximidamide] yielded an EC50 of 576 nM. Same read-out and setting: the result for `O/N=C(\Nc1ccc(F)c(-c2ccccc2)c1)c1ccnc2nc[nH]c12` [Example 77, N-(6-Fluoro-[1,1′-biphenyl]-3-yl)-N′-hydroxy-1H-imidazo[4,5-b]pyridine-7-carboximidamide] reads 2290 nM; that for `O/N=C(\Nc1cccc(Br)c1)c1ccnc2nc[nH]c12` [Example 80, N-(3-Bromophenyl)-N′-hydroxy-1H-imidazo[4,5-b]pyridine-7-carboximidamide], 111 nM. The same measure, in the same setting: the result for `CS(=O)(=O)CCNc1nc2c(F)c(F)cc(/C(=N/O)Nc3ccc(F)c(Cl)c3)c2[nH]1` [Example 35, N-(3-Chloro-4-fluorophenyl)-4,5-difluoro-N′-hydroxy-2-((2-(methylsulfonyl)ethyl)amino)-1H-benzo[d]imidazole-7-carboximidamide] reads 2150 nM; that for `O/N=C(\Nc1ccc(F)c(Cl)c1)c1ccnc2nc(NCCN3CCOCC3)[nH]c12` [Example 168, N-(3-Chloro-4-fluorophenyl)-N′-hydroxy-2-((2-morpholinoethyl)amino)-1H-imidazo[4,5-b]pyridine-7-carboximidamide], 1160 nM. `COCCCNc1nc2nccc(/C(=N/O)Nc3ccc(F)c(Cl)c3)c2[nH]1` [Example 234, N-(3-chloro-4-fluorophenyl)-N′-hydroxy-2-((3-methoxypropyl)amino)-1H-imidazo[4,5-b]pyridine-7-carboximidamide] gave an EC50 of 698 nM. Still for that read-out and setting: the result for `COCCNCCc1nc2nccc(/C(=N/O)Nc3ccc(F)c(Cl)c3)c2[nH]1` [Example 190, N-(3-Chloro-4-fluorophenyl)-N′-hydroxy-2-(2-((2-methoxyethyl)amino)ethyl)-1H-imidazo[4,5-b]pyridine-7-carboximidamide] reads 1510 nM. Same read-out and setting: the result for `CS(=O)(=O)CCNc1nc2c(F)ccc(/C(=N/O)Nc3ccc(F)c(Cl)c3)c2[nH]1` [Example 33, N-(3-Chloro-4-fluorophenyl)-4-fluoro-N′-hydroxy-2-((2-(methylsulfonyl)ethyl)amino)-1H-benzo[d]imidazole-7-carboximidamide] reads 1830 nM.

In the case of `O/N=C(\Nc1ccc(F)c(Cl)c1)c1ccnc2nc(CCN3CC[C@H](O)C3)[nH]c12` [Example 261, (S)—N-(3-chloro-4-fluorophenyl)-N′-hydroxy-2-(2-(3-hydroxypyrrolidin-1-yl)ethyl)-1H-imidazo[4,5-b]pyridine-7-carboximidamide], the EC50 worked out at 3450 nM. Still for that read-out and setting: the result for `O/N=C(\Nc1ccc(F)c(Cl)c1)c1ccnc2nc(CNCc3ncccn3)[nH]c12` [Example 130, N-(3-Chloro-4-fluorophenyl)-N′-hydroxy-2-(((pyrimidin-2-ylmethyl)amino)methyl)-1H-imidazo[4,5-b]pyridine-7-carboximidamide] reads 2810 nM; that for `O/N=C(\Nc1ccc(F)c(Cl)c1)c1ccnc2nc(-c3ncc[nH]3)[nH]c12` [Example 149, N-(3-Chloro-4-fluorophenyl)-N′-hydroxy-2-(1H-imidazol-2-yl)-1H-imidazo[4,5-b]pyridine-7-carboximidamide], 529 nM. Still for that read-out and setting: the result for `O/N=C(\Nc1ccc(F)c(Cl)c1)c1ccnc2nc(CCN3CC[C@@H](O)C3)[nH]c12` [Example 260, (R)—N-(3-chloro-4-fluorophenyl)-N′-hydroxy-2-(2-(3-hydroxypyrrolidin-1-yl)ethyl)-1H-imidazo[4,5-b]pyridine-7-carboximidamide] reads 3210 nM; that for `NC1(CCNc2nc3nccc(/C(=N/O)Nc4ccc(F)c(Cl)c4)c3[nH]2)CC1` [Example 242, 2-((2-(1-aminocyclopropyl)ethyl)amino)-N-(3-chloro-4-fluorophenyl)-N′-hydroxy-1H-imidazo[4,5-b]pyridine-7-carboximidamide], 1630 nM. The same measure, in the same setting: the result for `CCC#Cc1cc(N/C(=N\O)c2ccnc3nc[nH]c23)ccc1F` [Example 78, N-(3-(But-1-yn-1-yl)-4-fluorophenyl)-N′-hydroxy-1H-imidazo[4,5-b]pyridine-7-carboximidamide] reads 2640 nM. On to `CN(C)CCc1nc2c(/C(=N/O)Nc3cccc(Cl)c3)cc(F)c(F)c2[nH]1` [Example 56, N-(3-Chlorophenyl)-2-(2-(dimethylamino)ethyl)-6,7-difluoro-N′-hydroxy-1H-benzo[d]imidazole-4-carboximidamide], for which the EC50 was 562 nM. The same measure, in the same setting: the result for `O/N=C(\Nc1ccc(F)c(Cl)c1)c1ccnc2nc(NC3CCOCC3)[nH]c12` [Example 228, N-(3-chloro-4-fluorophenyl)-N′-hydroxy-2-((tetrahydro-2H-pyran-4-yl)amino)-1H-imidazo[4,5-b]pyridine-7-carboximidamide] reads 2140 nM.

The experiment is the same for the next values; noted with them: HeLa cells, IFNγ-induced IDO1, kynurenine in supernatant, 48 hour incubation; geometric mean of a minimum of four determinations.
`CN1CCC[C@H](Nc2nc3c(F)c(F)cc(/C(=N/O)Nc4cccc(Cl)c4)c3[nH]2)C1` [Example 459, (S)—N-(3-chlorophenyl)-4,5-difluoro-N′-hydroxy-2-((1-methylpiperidin-3-yl)amino)-1H-benzo[d]imidazole-7-carboximidamide] displayed an EC50 of 337 nM. On the same count and under the same terms, the result for `CN(CCc1nc2nccc(/C(=N/O)Nc3ccc(F)c(Cl)c3)c2[nH]1)Cc1ccccc1` [Example 396, 2-(2-(benzyl(methyl)amino)ethyl)-N-(3-chloro-4-fluorophenyl)-N′-hydroxy-1H-imidazo[4,5-b]pyridine-7-carboximidamide] reads 790 nM; that for `CNCCNc1nc2c(F)c(F)cc(/C(=N/O)Nc3ccc(F)c(Cl)c3)c2[nH]1` [Example 395, N-(3-chloro-4-fluorophenyl)-4,5-difluoro-N′-hydroxy-2-((2-(methylamino)ethyl)amino)-1H-benzo[d]imidazole-7-carboximidamide], 757 nM; that for `O/N=C(\Nc1ccc(F)c(Cl)c1)c1cc(F)c(F)c2nc(NCC3CCCNC3)[nH]c12` (centres unmarked) [Example 304, N-(3-chloro-4-fluorophenyl)-4,5-difluoro-N′-hydroxy-2-((piperidin-3-ylmethyl)amino)-1H-benzo[d]imidazole-7-carboximidamide], greater than 10000 nM.

On to `CN(CCNc1nc2c(F)c(F)cc(/C(=N/O)Nc3ccc(F)c(Cl)c3)c2[nH]1)CC1CCOCC1` [Example 394, N-(3-chloro-4-fluorophenyl)-4,5-difluoro-N′-hydroxy-2-((2-(methyl((tetrahydro-2H-pyran-4-yl)methyl)amino)ethyl)amino)-1H-benzo[d]imidazole-7-carboximidamide], for which the EC50 turned out to be 332 nM. For the compound `OCC1CCCN1CCNc1nc2c(F)c(F)cc(/C(=N/O)Nc3ccc(F)c(Cl)c3)c2[nH]1` (centres unmarked) [Example 490, N-(3-chloro-4-fluorophenyl)-4,5-difluoro-N′-hydroxy-2-((2-(2-(hydroxymethyl)pyrrolidin-1-yl)ethyl)amino)-1H-benzo[d]imidazole-7-carboximidamide], the EC50 stood at 186 nM. `COCCN1CCC(Nc2nc3c(F)c(F)cc(/C(=N/O)Nc4ccc(F)c(Cl)c4)c3[nH]2)C1` (centres unmarked) [Example 454, N-(3-chloro-4-fluorophenyl)-4,5-difluoro-N′-hydroxy-2-((1-(2-methoxyethyl)pyrrolidin-3-yl)amino)-1H-benzo[d]imidazole-7-carboximidamide] registered an EC50 of 247 nM.
